Assay results taken from the supplement of paper PMC10307832.

Columns and labels:
Experiment in all cases: relative viability (nuclei count vs DMSO), 5 days (fraction); higher = more cells survive
[1] = compound: C[C@]1(c2nc3c(C(N)=O)cccc3[nH]2)CCCN1 [Veliparib] + Cc1nc(Nc2ncc(C(=O)Nc3c(C)cccc3Cl)s2)cc(N2CCN(CCO)CC2)n1 [Dasatinib] (partner 0.075 µM)
Method in brief: (§1)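 Medians of duplicate plates are given as relative viability. That measure is the nuclei count in treated wells divided by the count in vehicle wells. Counts were taken on 4× images of lung cancer cell lines in 1536-well plates, 5 days after pin-tool dosing the day after seeding with one drug alone or a fixed anchor-drug dose plus five library-drug doses (not always all listed) in √10 steps.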

[2] = compound: C[C@]1(c2nc3c(C(N)=O)cccc3[nH]2)CCCN1 [Veliparib] + CCNC(=O)c1noc(-c2cc(C(C)C)c(O)cc2O)c1-c1ccc(CN2CCOCC2)cc1 [Luminespib] (partner 0.01 µM)
Method in brief: as §1

[3] = compound: COC1=CC=C(C=C1)CN2C=CC3=C2C=C(C=C3)C(=O)NO + CC(C)C[C@H](NC(=O)[C@H](Cc1ccccc1)NC(=O)c1cnccn1)B(O)O [Bortezomib] (partner 0.002 µM)
Method in brief: as §1

[4] = compound: COC1=CC=C(C=C1)CN2C=CC3=C2C=C(C=C3)C(=O)NO + Nc1ncn([C@H]2C[C@H](O)[C@@H](CO)O2)c(=O)n1 [Decitabine] (partner 2 µM)
Method in brief: as §1

Row | Cell Line | relative viability ([1]; first compound 0.02 µM) | relative viability ([1]; first compound 0.06325 µM) | relative viability ([1]; first compound 0.2 µM) | relative viability ([1]; first compound 0.6325 µM) | relative viability ([1]; first compound 2 µM) | relative viability ([2]; first compound 0.02 µM) | relative viability ([2]; first compound 0.06325 µM) | relative viability ([2]; first compound 0.2 µM) | relative viability ([2]; first compound 0.6325 µM) | relative viability ([2]; first compound 2 µM) | relative viability ([3]; first compound 0.08 µM) | relative viability ([3]; first compound 0.253 µM) | relative viability ([3]; first compound 0.8 µM) | relative viability ([3]; first compound 2.53 µM) | relative viability ([3]; first compound 8 µM) | relative viability ([4]; first compound 0.08 µM) | relative viability ([4]; first compound 0.8 µM) | relative viability ([4]; first compound 2.53 µM) | relative viability ([4]; first compound 8 µM) | relative viability ([4]; first compound 0.253 µM)
1 | PC-3 [JPC-3] | 1.04 | 0.93 | 0.967 | 0.985 | 0.975 | 0.65 | 0.711 | 0.753 | 0.662 | 0.66 | 0.808 | 0.814 | 0.833 | 0.817 | 0.854 | 0.764 | 0.775 | 0.833 | 0.832 | 
2 | PC-14 | 0.214 | 0.26 | 0.319 | 0.281 | 0.317 |  | 0.147 | 0.198 | 0.151 | 0.145 | 0.706 | 0.726 | 0.954 | 0.956 | 0.937 | 0.212 | 0.198 | 0.223 | 0.244 | 0.259
3 | RERF-LC-KJ | 0.574 | 0.865 | 0.845 | 0.767 | 0.755 | 1.26 | 1.25 | 1.2 | 1.21 | 1.29 | 1.08 | 1.13 | 1.11 | 1.13 | 1.06 | 0.74 | 0.645 | 0.738 | 0.599 | 0.675
4 | SK-LU-1 | 0.185 | 0.173 | 0.175 | 0.17 | 0.187 | 0.227 | 0.195 | 0.232 | 0.199 | 0.22 |  | 1.08 | 1.58 | 1.14 | 0.817 | 0.611 | 0.634 | 0.753 | 0.531 | 0.616
5 | UMC-11 | 0.505 | 0.451 | 0.483 | 0.452 | 0.542 | 1.11 | 0.994 | 1.02 | 0.958 | 0.975 | 0.665 | 0.668 | 0.809 | 0.67 | 0.634 |  | 0.595 | 0.575 | 0.509 | 0.369
